{"source": "patent US9370474B2", "about": "“High-clarity aqueous concentrates of 4-hexylresorcinol” (JOHNSON & JOHNSON CONSUMER INC., priority 2009, dated 2016)", "key": {"[1]": {"assay": "Clarity of mixtures of resorcinol/phenol analogues with water", "assay_type": "physicochemical", "settings": "separately mixed with water at 50% and 75% concentrations", "source_text": "4-Octylresorcinol and 3-methoxyphenol (from Sigma-Aldrich of St. Louis, Mo.) were separately mixed with water at 50% and 75% concentrations."}, "[2]": {"settings": "cited from earlier work"}}}
{"smiles": "COc1cccc(O)c1", "note": "[3-methoxyphenol]", "values": [{"measurement": "Clarity / appearance of mixtures with water", "setting": "[1]", "result": "None of the mixtures were clear"}]}
{"smiles": "CCCCCCCCc1ccc(O)cc1O", "note": "[4-Octylresorcinol]", "values": [{"measurement": "Clarity / appearance of mixtures with water", "setting": "[1]", "result": "None of the mixtures were clear"}]}
{"smiles": "CCCCCCc1ccc(O)cc1O", "note": "[Example 4-HR, 4-Hexylresorcinol]", "values": [{"measurement": "Water solubility (prior art characterization)", "setting": "[2]", "result": "water-insoluble"}]}
